This note sets out measurements from US6828315B1, “1-Amino triazoloc4,3-a! quinazoline-5-ones and/or -5-thiones inhibiting phosphodiesterase IV” (Warner-Lambert LLC, priority 1999, dated 2004).

pIC50: −log10 of the molar value. Where only a bound is given, the exact number is not on record here.

One series concerns the target type 4 phosphodiesterases (PDE4). The series can be described thus: Inhibition of the phosphodiesterase (PDE4), enzymatic preparation from line U937. The format is biochemical. Conditions: PDE4 from cytosolic preparation of human cell line U937. As to the method: The capacity of the formula (I) compounds of the invention to inhibit the cyclic nucleotide phosphodiesterases is evaluated by their Cl50 measurement (necessary concentration to inhibit 50% of enzymatic activity).
The type 4 phosphodiesterases are obtained from a cytosolic preparation extracted from the human origin cellular line U937 according to a method adapted from T. J. Torphy and al., 1992, J.Pharm.Exp. Ther. 263: 1195-1205
The other classes of phosphodiesterases are obtained after partial purification FPLC on Mono Q column. (anion exchange column) according to a method adapted from Lavan B. E., Lakey T., Houslay M. D. Biochemical Pharmacology, 1989, 38(22), 4123-4136., and from Silver P. J and al., 1988, Eur.J. Pharmacol. 150: 85-94, either, from human origin cellular lines for PDE 1 (monocytar line TPH1) and PDE5 (line MCF7 issued from an adenocarcinoma), or from dog aorta for PDE 3, or for the human PDE3A, from gene cloning in insect cells SF21 in baculovirus, according to a method adapted from Luckow, V. A. and al., 1991 in Recombinant DNA Technology&Applications.,eds. Prokop, Bajpai,R. K.&Ho,C. S., pp97-152. The enzymatic activity measurement of the different PDE classes, and in particular the PDE 4, is performed according to a method adapted from W. J. Thompson and al. 1979, Advances in Cyclic Nucleotide Research, Vol. 10: 69-92, ed. G. Brooker and al. Raven Press, NY.
For the Cl50 determination, the enzymatic activity is measured in the presence of inhibitor within concentration margins of 0.1 to 100 μM.
The following table illustrates the PDE4 inhibitory activity from enzymatic preparation obtained from the line U937.
One may read the pIC50 as the negative decadic logarithm of the IC50, by convention in mol/L. Consider `O=c1c2cc(Cl)ccc2n2c(N3CCCCCC3)nnc2n1CC=Cc1ccccc1` [Compound 1, 1-(Azepan-1-yl)-7-chloro-4-(3-phenylallyl)-4H-[1,2,4]triazolo[4,3-a]quinazolin-5-one], for which the pIC50 was 7.27.
The same measure, in the same setting: the figure for `O=c1c2cc(Cl)ccc2n2c(N3CCCCCC3)nnc2n1Cc1ccc(Cl)cc1` [Compound 11, 1-(azepan-1-yl)-7-chloro-4-(4-chlorobenzyl)-4H-[1,2,4]triazolo[4,3-a]quinazolin-5-one] is 7.10; for `O=c1c2cc(Br)ccc2n2c(N3CCCCC3)nnc2n1CC=Cc1ccccc1` [Compound 76, 1-(piperidin-1-yl)-7-bromo-4-(3-phenylallyl)-4H-[1,2,4]triazolo[4,3-a]quinazolin-5-one] it is 7.15; for `Cc1ccc2c(c1)c(=O)n(Cc1ccc(CC(=O)O)cc1)c1nnc(N(C)C)n21` [Compound 102, [4-(1-Dimethylamino-7-methyl-5-oxo-5H-[1,2,4]triazolo[4,3-a]quinazolin-4-ylmethyl)-phenyl]-acetic acid] it is 7.22.
The same measure, in the same setting: to `O=c1c2cc(Br)ccc2n2c(N3CCCC3)nnc2n1Cc1ccccc1` [Compound 164, 4-benzyl-7-bromo-1-(pyrrolidin-1-yl)-4H-[1,2,4]triazolo[4,3-a]-quinazolin-5-one] belongs 7.05.
The compound `Nc1ccc(Cn2c(=O)c3cc(Br)ccc3n3c(N4CCCC4)nnc23)cc1` [Compound 218, 4-(4-Amino-benzyl)-7-bromo-1-pyrrolidin-1-yl-4H-[1,2,4]triazolo[4,3-a]quinazolin-5-one] had a pIC50 of 7.32.
In the case of `Nc1ccc2c(c1)c(=O)n(C/C=C/c1ccccc1)c1nnc(N3CCCC3)n21` [Compound 223, 7-Amino-4-((E)-3-phenyl-allyl)-1-pyrrolidin-1-yl-4H-[1,2,4]triazolo[4,3-a]quinazolin-5-one], the pIC50 was 7.92.
The same measure, in the same setting: to `CC(C)Nc1ccc2c(c1)c(=O)n(Cc1ccccc1)c1nnc(N3CCCC3)n21` [Compound 234, 4-Benzyl-7-isopropylamino-1-pyrrolidin-1-yl-4H-[1,2,4]triazolo[4,3-a]quinazolin-5-one] belongs 5.57; to `COC(=O)Cc1ccc(Cn2c(=O)c3cc(Br)ccc3n3c(N4CCCC4)nnc23)cc1` [Compound 239, [4-(7-Bromo-5-oxo-1-pyrrolidin-1-yl-5H-[1,2,4]triazolo[4,3-a]quinazolin-4-ylmethyl)-phenyl]-acetic acid methyl ester], 8.30; to `CNC(=O)Cc1ccc(Cn2c(=O)c3cc(Br)ccc3n3c(N4CCCC4)nnc23)cc1` [Compound 240, 2-[4-(7-Bromo-5-oxo-1-pyrrolidin-1-yl-5H-[1,2,4]triazolo[4,3-a]quinazolin-4-ylmethyl)-phenyl]-N-methyl-acetamide], 7.89.

System in another series: not given
Experiment: not given
Conditions: not given
Broadly, the melting point is the temperature, or range, at which the solid turns liquid. As to `O=c1c2cc(Cl)ccc2n2c(N3CCCCCC3)nnc2n1Cc1ccc(Cl)cc1` [Compound 11, 1-(azepan-1-yl)-7-chloro-4-(4-chlorobenzyl)-4H-[1,2,4]triazolo[4,3-a]quinazolin-5-one], the melting point was determined as 166 °C.
Same read-out and setting: to `Cn1c(=O)c2c(Cl)cccc2n2c(N3CCCCCC3)nnc12` [Compound 202, 1-(azepan-1-yl)-6-chloro-4-methyl-4H-[1,2,4]triazolo[4,3-a]-quinazolin-5-one] belongs greater than 275 °C; to `Cn1c(=O)c2cc(Cl)ccc2n2c(N3CCCCCC3)nnc12` [Compound 203, 1-(azepan-1-yl)-7-chloro-4-methyl-4H-[1,2,4]triazolo[4,3-a]-quinazolin-5-one], 145 °C.
Still for that read-out and setting: to `CCn1c(=O)c2cc(Cl)ccc2n2c(N3CCCCCC3)nnc12` [Compound 204, 1-(azepan-1-yl)-7-chloro-4-ethyl-4H-[1,2,4]triazolo[4,3-a]-quinazolin-5-one] belongs 98 to 100 °C.
`Cn1c(=O)c2cc(Cl)ccc2n2c(N3CCCC3)nnc12` [Compound 205, 7-chloro-4-methyl-1-(pyrrolidin-1-yl)-4H-[1,2,4]triazolo[4,3-a]-quinazolin-5-one] showed a melting point of 203 to 205 °C.
As to `Cn1c(=O)c2cc(Cl)ccc2n2c(N3CCOCC3)nnc12` [Compound 206, 7-chloro-4-methyl-1-(morpholin-4-yl)-4H-[1,2,4]triazolo[4,3-a]-quinazolin-5-one], the melting point turned out to be 232 °C.
The same measure, in the same setting: the figure for `Cn1c(=O)c2cc(Cl)ccc2n2c(N3CCCCCCC3)nnc12` [Compound 207, 1-(azocan-1-yl)-7-chloro-4methyl-4H-[1,2,4]triazolo[4,3-a]-quinazolin-5-one] is 123 to 125 °C; for `Cn1c(=O)c2cc(Cl)ccc2n2c(N3CCCc4ccccc43)nnc12` [Compound 208, 7-chloro-1-(3,4-dihydro-2H-quinolin-1-yl)-4-methyl-4H-[1,2,4]triazolo[4,3-a]quinazolin-5-one] it is 204 °C.
For `Cn1c(=O)c2cc(Cl)ccc2n2c(N3CCc4ccccc4C3)nnc12` [Compound 209, 7-chloro-1-(3,4-dihydro-1H-isoquinolin-2-yl)-4-methyl-4H-[1,2,4]triazolo[4,3-a]quinazolin-5-one], the melting point worked out at 272 °C.
`Cn1c(=O)c2cc(Cl)ccc2n2c(N3CCC(Cc4ccccc4)CC3)nnc12` [Compound 210, 1-(4-benzylpiperidin-1-yl)-7chloro-4-methyl-4H-[1,2,4]triazolo[4,3-a]quinazolin-5-one] had a melting point of 180 °C.
On the same count and under the same terms, the figure for `Cn1c(=O)c2cc(Cl)ccc2n2c(N3CC4(C)CC3CC(C)(C)C4)nnc12` (stereo not shown) [Compound 211, 7-chloro-4-methyl-1-(1,3,3-trimethyl-6-azabicyclo[3,2,1]oct-6yl)-4H-[1,2,4]triazolo[4,3-a]-quinazolin-5-one] is 165 °C; for `Cn1c(=O)c2cc(F)ccc2n2c(N3CCCCCC3)nnc12` [Compound 212, 1-(azepan-1-yl)-7-fluoro-4-methyl-4H-[1,2,4]triazolo[4,3-a]-quinazolin-5-one] it is 136 °C.
Compound `Cn1c(=O)c2cc(I)ccc2n2c(N3CCCCCC3)nnc12` [Compound 213, 1-(azepan-1-yl)-7-iodo-4-methyl-4H-[1,2,4]triazolo[4,3-a]-quinazolin-5-one] yielded a melting point of 206 °C.
The same measure, in the same setting: to `Nc1ccc2c(c1)c(=O)n(Cc1ccccc1)c1nnc(N3CCCC3)n21` [Compound 225, 7-Amino-4-benzyl-1-pyrrolidin-1-yl-4H-[1,2,4]triazolo[4,3-a]quinazolin-5-one] belongs 230 °C; to `N#Cc1ccc(Cn2c(=O)c3cc(N)ccc3n3c(N4CCCC4)nnc23)cc1` [Compound 226, 4-(7-Amino-5-oxo-1-pyrrolidin-1-yl-5H-[1,2,4]triazolo[4,3-a]quinazolin-4-ylmethyl)-benzonitrile], 152 °C; to `CN(C)c1nnc2n(Cc3ccc(C#N)cc3)c(=O)c3cc(N)ccc3n12` [Compound 228, 4-(7-Amino-1-dimethylamino-5-oxo-5H-[1,2,4]triazolo[4,3-a]quinazolin-4-ylmethyl)-benzonitrile], 163 °C.
`CN(C)c1nnc2n(Cc3ccc(CC(N)=O)cc3)c(=O)c3cc(Br)ccc3n12` [Compound 241, 2-[4-(7-Bromo-1-dimethylamino-5-oxo-5H-[1,2,4]triazolo[4,3-a]quinazolin-4-ylmethyl)-phenyl]-acetamide] gave a melting point of 268 °C.
Regarding `CN(C)c1nnc2n(Cc3ccc(C#N)cc3)c(=S)c3cc(Br)ccc3n12` [Compound 245, 4-(7-Bromo-1-dimethylamino-5-thioxo-5H-[1,2,4]triazolo[4,3-a]quinazolin-4-ylmethyl)-benzonitrile], the melting point came out at 276 °C.
